Among the data in patent publication US20220213061A9, “HETEROCYCLIC COMPOUNDS FOR MODULATING NR2F6” (TES Pharma S.r.l., priority 2020, published 2022) are EC50 values, retold here.

Counter-ions that a name gives are not always drawn.

This experiment concerns the target T1, recombinant human NR2F6 protein (Homo sapiens, UniProt P10588).
T1 sequence (P10588 1-404): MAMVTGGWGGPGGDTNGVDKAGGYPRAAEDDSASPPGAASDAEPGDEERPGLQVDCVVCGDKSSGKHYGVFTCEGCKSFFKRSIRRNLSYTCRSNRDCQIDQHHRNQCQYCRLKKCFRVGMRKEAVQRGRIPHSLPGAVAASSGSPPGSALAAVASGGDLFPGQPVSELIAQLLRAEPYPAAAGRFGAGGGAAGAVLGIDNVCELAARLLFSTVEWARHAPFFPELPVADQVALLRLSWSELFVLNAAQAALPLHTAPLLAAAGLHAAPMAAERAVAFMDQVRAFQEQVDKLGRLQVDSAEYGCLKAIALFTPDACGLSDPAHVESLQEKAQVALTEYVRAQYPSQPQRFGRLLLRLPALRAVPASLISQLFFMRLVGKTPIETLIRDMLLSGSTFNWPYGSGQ
As to the kind of experiment: Biochemical NR2F6 binding assay (EnSpire label-free). Conditions: label-free binding to immobilized purified recombinant human NR2F6; ligands 1 nM to 100 uM, 1% DMSO. The protocol:
Purified recombinant human NR2F6 protein was dissolved in immobilization buffer at pH 4.5 and then immobilized in EnSpire-LFB High-Sensitivity User-Activated Plates at the concentration of 50 μg/well plate and left in incubation for 16 h at 4° C. Wells with only immobilization buffer were used as negative control to check the protein coating efficiency. NR2F6 ligands were resuspended in DMSO at the concentration of 10 mM, then dispensed into a plate containing assay buffer at concentrations ranging from 1 nM to 100 uM using an HP-dispenser. DMSO was normalized at the 1% of volume of each well. The final readings were taken over a period of 30 minutes. The label-free responses were measured as shifts in reflected wavelength and are expressed in picometers (pm). Results were analyzed using the EnSpire label-free user interface software, and EC50 and graphs were generated using GraphPad PRISM software. In the tables below, A is <1 μM; B is 1 to 10 μM; C is 10 to 50 μM; and D is >50 μM.

Take `O=C(Nc1ccccc1Oc1cccnc1)[C@H]1CNC[C@@H]1c1ccccc1` (racemic) [Compound I-68, (±)-trans-4-Phenyl-N-[2-(pyridin-3-yloxy)phenyl]pyrrolidine-3-carboxamide dihydrochloride]: the EC50 fell in the range of 1 to 10 µM.
In the case of `O=C(NCc1ccncc1)[C@H]1CNC[C@@H]1c1ccccc1` [Compound I-31, (3R,4S)-4-Phenyl-N-(pyridin-4-ylmethyl)pyrrolidine-3-carboxamide dihydrochloride], the EC50 lay in the range of 1 to 10 µM.
As to `O=C(N[C@H]1C[C@H](Oc2cccnc2)C1)[C@H]1CNC[C@@H]1c1ccccc1` (racemic) [Compound I-101, (±)-trans-N-[trans-3-(Pyridyn-3-yloxy)cyclobutyl]-4-phenylpyrrolidine-3-carboxamide dihydrochloride], the EC50 is 10 to 50 µM.
Then `O=C(NC1CCN(c2ccccc2)CC1)[C@@H]1CNC[C@H]1c1ccccc1` [Compound I-123, (3S,4R)-3-[(l-Phenylpiperidin-4-yl)carbamoyl]-4-phenylpyrrolidine dihydrochloride], with 1 to 10 µM; and `O=C(Nc1cccc(Nc2ccccc2)c1)[C@@H]1CNC[C@H]1c1ccccc1` [Compound I-114, (3S,4R)-4-Phenyl-N-[3-(phenylamino)phenyl]pyrrolidine-3-carboxamide hydrochloride], with 1 to 10 µM.
For `N#Cc1ccc(Oc2cccc(NC(=O)[C@H]3CNC[C@@H]3c3ccccc3)c2)cc1` (racemic) [Compound I-90, (±)-trans-N-[3-(4-Cyanophenoxy)phenyl]-4-phenylpyrrolidine-3-carboxamide hydrochloride] the value was less than 1 µM.
For `O=C(Nc1ccc(-c2cccnc2)cc1)[C@H]1CNC[C@@H]1c1ccccc1` [Compound I-39, (3R,4S)-4-Phenyl-N-[4-(pyridin-3-yl)phenyl]pyrrolidine-3-carboxamide dihydrochloride] the value was greater than 50 µM; for `O=C(Nc1cccc2ccccc12)[C@@H]1CNC[C@H]1c1ccc(C(F)(F)F)cc1` [Compound I-110, (3S,4R)—N-(Naphthalen-1-yl)-4-[4-(trifluoromethyl)phenyl]pyrrolidine-3-carboxamide hydrochloride], 1 to 10 µM; for `S=C(Nc1cccc2cnccc12)N[C@@H]1CN(Cc2ccccc2)C[C@H]1c1ccccc1` (racemic) [Compound I-6, (±)-trans-1-Isoquinolin-5-yl-3-(1-benzyl-4-phenylpyrrolidin-3-yl)thiourea], 1 to 10 µM.
In the case of `O=C(Nc1ccc(Oc2cccnc2)cc1)[C@H]1CNC[C@@H]1c1ccccc1` (racemic) [Compound I-70, (±)-trans-4-Phenyl-N-[4-(pyridin-3-yloxy)phenyl]pyrrolidine-3-carboxamide dihydrochloride], the EC50 is greater than 50 µM.
For `O=C(Nc1cccc2cnccc12)[C@@H]1CNC[C@H]1c1cccs1` [Compound I-56, (3S,4S)—N-(Isoquinolin-5-yl)-4-(thiophen-2-yl)pyrrolidine-3-carboxamide] the value was greater than 50 µM; for `O=C(Nc1cccc(-c2ccccc2)c1)[C@@H]1CNC[C@H]1c1ccccc1F` (racemic) [Compound I-28, (±)-trans-4-(2-Fluorophenyl)-pyrrolidine-3-carboxylic acid biphenyl-3-ylamide hydrochloride], greater than 50 µM.
For `O=C(Nc1cccc(Nc2ccccc2)c1)[C@H]1CNC[C@@H]1c1ccccc1` [Compound I-113, (3R,4S)-4-Phenyl-N-[3-(phenylamino)phenyl]pyrrolidine-3-carboxamide hydrochloride] the value was 1 to 10 µM.
Then `O=C(Nc1cccc2cnccc12)[C@H]1CNC[C@@H]1c1ccccc1` [Compound I-29, (3R,4S)—N-(Isoquinolin-5-yl)-4-phenylpyrrolidine-3-carboxamide], with less than 1 µM; and `O=C(Nc1cccc(-c2cccnc2)c1)[C@@H]1CNC[C@H]1c1cccs1` (racemic) [Compound I-49, (±)-trans-N-[3-(Pyridin-3-yl)phenyl]-4-(thiophen-2-yl)pyrrolidine-3-carboxamide dihydrochloride], with greater than 50 µM.
Turning to `O=C(Nc1cccc(OC2CCOCC2)c1)[C@@H]1CNC[C@H]1c1ccccc1` (racemic) [Compound I-86, (±)-trans-N-[3-(Tetrahydro-2H-pyran-4-yloxy)phenyl]-4-phenylpyrrolidine-3-carboxamide hydrochloride], the EC50 lay within 1 to 10 µM.
Consider `O=C(Nc1cccc2c(Cl)nccc12)[C@H]1CNC[C@@H]1c1ccccc1` [Compound I-83, (3R,4S)—N-(1-Chloroisoquinolin-5-yl)-4-phenylpyrrolidine-3-carboxamide dihydrochloride], for which the EC50 fell in the range of 1 to 10 µM.
On to `O=C(Nc1ccc(-c2ccc(F)nc2)cc1)[C@@H]1CNC[C@H]1c1ccccc1` [Compound I-108, (3S,4R)—N-[4-(6-Fluoropyridin-3-yl)phenyl]-4-phenylpyrrolidine-3-carboxamide dihydrochloride], for which the EC50 was less than 1 µM.
Then `Cc1ccc(O[C@H]2C[C@H](NC(=O)[C@H]3CNC[C@@H]3c3ccccc3)C2)cn1` (racemic) [Compound I-102, (±)-trans-N-{trans-3-[(6-Methylpyridin-3-yl)oxy]cyclobutyl}-4-phenylpyrrolidine-3-carboxamide dihydrochloride], with 1 to 10 µM; and `Cc1nccc2c(NC(=O)[C@H]3CNC[C@@H]3c3ccccc3)cccc12` [Compound I-30, (3R,4S)—N-(1-Methylisoquinolin-5-yl)-4-phenylpyrrolidine-3-carboxamide dihydrochloride], with less than 1 µM.
Then `O=C(NCc1ccccc1)[C@H]1CNC[C@@H]1c1ccccc1` [Compound I-33, (3R,4S)—N-Benzyl-4-phenylpyrrolidine-3-carboxamide hydrochloride], with 10 to 50 µM; and `O=C(Nc1cccc2cnccc12)[C@@H]1CNC[C@H]1c1ccccc1` [Compound I-40, (3S,4R)—N-(Isoquinolin-5-yl)-4-phenylpyrrolidine-3-carboxamide dihydrochloride], with greater than 50 µM; and `O=C(Nc1cc2ccccc2cn1)[C@H]1CNC[C@@H]1c1ccccc1` [Compound I-38, (3R,4S)—N-(Isoquinolin-3-yl)-4-phenylpyrrolidine-3-carboxamide dihydrochloride], with 1 to 10 µM.
As to `O=C(NC1CCN(c2ccc(F)cc2)CC1)[C@@H]1CNC[C@H]1c1ccccc1` [Compound I-121, (3S,4R)-3-{[1-(4-Fluorophenyl)Ipiperidin-4-yl]carbamoyl]}-4-phenylpyrrolidine dihydrochloride], the EC50 was in the range of 1 to 10 µM.
For `N#Cc1ccc(Oc2cccc(NC(=O)[C@H]3CNC[C@@H]3c3ccccc3)c2)cc1` [Compound I-111, (3R,4S)—N-[3-(4-Cyanophenoxy)phenyl]-4-phenylpyrrolidine-3-carboxamide hydrochloride] the value was less than 1 µM.
For `O=C(Nc1cccc2ocnc12)[C@H]1CNC[C@@H]1c1ccccc1` (racemic) [Compound I-76, (±)-trans-N-(1,3-Benzoxazol-4-yl)-4-phenylpyrrolidine-3-carboxamide dihydrochloride] the value was greater than 50 µM; for `CN1C[C@@H](C(=O)Nc2cccc(-c3cccnc3)c2)[C@H](c2ccccc2)C1` (racemic) [Compound I-46, (±)-trans-1-Methyl-4-phenyl-N-[3-(pyridin-3-yl)phenyl]pyrrolidine-3-carboxamide], greater than 50 µM; for `O=C(Nc1cccc(Oc2ccc(C(F)(F)F)cc2)c1)[C@H]1CNC[C@@H]1c1ccccc1` (racemic) [Compound I-92, (±)-trans-4-Phenyl-N-{3-[4-(trifluoromethyl)phenoxy]phenyl}pyrrolidine-3-carboxamide hydrochloride], 1 to 10 µM.
For the compound `O=C(Nc1ccc(Nc2cccnc2)cc1)[C@H]1CNC[C@@H]1c1ccccc1` (racemic) [Compound I-107, (±)-trans-4-Phenyl-N-[4-(pyridin-3-ylamino)phenyl]pyrrolidine-3-carboxamide dihydrochloride], the EC50 is greater than 50 µM.
For `O=C(Nc1cccc(Oc2ccccc2)c1)[C@H]1CNC[C@@H]1c1ccccc1` (racemic) [Compound I-69, (±)-trans-N-(3-Phenoxyphenyl)-4-phenylpyrrolidine-3-carboxamide hydrochloride] the value was less than 1 µM.
For `O=C(Nc1cccc2cnccc12)[C@H]1CNC[C@H]1c1ccccc1` [Compound I-88, (3R,4R)—N-(Isoquinolin-5-yl)-4-phenylpyrrolidine-3-carboxamide dihydrochloride] the value was 1 to 10 µM.
Then `O=C(Nc1cccc(Oc2cccnc2)c1)[C@@H]1CNC[C@H]1c1ccccc1` (racemic) [Compound I-52, dihydrochloride], with greater than 50 µM.
